In EP0932387B1 (UNILEVER PLC, priority 1996, dated 1998):
Read-outs that look alike come from different tables or passages of the source. Blank lines part the entries; values can stand above or below the compound they belong to.

Key:
[1] = biological target: T1, lecithin retinol acyl transferase (LRAT) (Bos taurus, UniProt Q9BGL2); assay: In vitro Microsomal Assay, LRAT catalyzed retinol esterification (retinyl laurate formation); type: biochemical, bovine
T1 construct: a microsomal fraction isolated from bovine retinal pigment epithelial cells; from tissue; host or cells: bovine retinal pigment epithelium, microsomal fraction
T1 sequence (Q9BGL2 1-230): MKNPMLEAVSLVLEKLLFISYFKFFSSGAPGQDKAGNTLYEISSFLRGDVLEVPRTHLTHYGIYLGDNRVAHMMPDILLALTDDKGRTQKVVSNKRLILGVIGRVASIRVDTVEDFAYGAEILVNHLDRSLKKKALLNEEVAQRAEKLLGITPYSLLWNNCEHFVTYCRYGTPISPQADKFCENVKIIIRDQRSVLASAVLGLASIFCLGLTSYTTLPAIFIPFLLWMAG

Human keratinocytes [2] = assay: Transglutaminase Assay (TGase I ELISA, procedure for other Examples), normalized to DNA; keratinocyte differentiation; type: cell-based; conditions: for TGase/ DNA (% control) / mean TGase/ DNA x10^5 ± s.d: 72 hour treatment; for mean TGase/ DNA x10^5 ± s.d: n = 3; for % Control: 1 mM, transglutaminase normalized to DNA; for activity at 1 µM: 1 micromolar, read-out: % of Control
Protocol: (§1) Human keratinocytes, isolated from neonatal foreskin by trypsin treatment were grown in Dulbecco Modification Eagle (DME) Hams F12 (1:1) medium/10% fetal calf serum in the presence of irradiated 3T3 mouse fibroblasts for establishing dividing keratinocyte colonies. Cells were grown under the above condition until their second passage and kept frozen for future use. Frozen second passage keratinocytes were thawed and plated into the above medium and grown for five days before they were switched to a serum-free MCDB 153-based medium keratinocyte growth medium (KGM) from Clonetics Corporation, San Diego, CA, containing 0.15 mM Ca, or keratinocyte serum-free media (KSFM) from GIBCO containing 0.09 mM Ca). On day 7, when the cells were 80-90% confluent, they were trypsinized and plated in the serum-free medium for the various experiments.
During the process of terminal differentiation in the epidermis, a 15nm thick layer of protein, known as the cornified envelope (CE) is formed on the inner surface of the cell periphery. The CE is composed of numerous distinct proteins which have been cross-linked together by the formation of N^ε-(γ-glutamyl) lysine isodipeptide bonds catalyzed by the action of at least two different transglutaminases (TGases) expressed in the epidermis. Transglutaminase I (TGase I) is expressed in abundance in the differentiated layers of the epidermis, especially the granular layer, but is absent in the undifferentiated basal epidermis. Thus TGase I is a useful marker of epidermal keratinocyte differentiation with high TGase I levels indicating a more differentiated state. An ELISA based TGase I assay, using a TGase I antibody, was used to assess the state of differentiation of the cultured keratinocytes in the examples that follow.
Keratinocytes (cultured as described above) were plated in 96 well plates at a density of 3,000 cells per well in 200µl of cell culture media. After incubation for four days, the media was changed to media containing test compounds (six replicates per test). The cells were cultured for a further 72 hours after which time the media was aspirated and the plates stored at -70°C. After the plates were removed from the freezer, the cells were further freezed fractured by freezing and thawing and then washed 3x with PBS. The cells were incubated for one hour at room temperature (R/T) with TBS/5% BSA buffer. Cells were then incubated with 100µl of monoclonal anti-human transglutaminase (IgG) mouse antibody (primary antibody) obtained from Biomedical Technologies Inc. diluted 1:2000 in TBS/1% BSA buffer for two hours at 37°C, and then rinsed six times with wash buffer (TBS/1% BSA/0.05% Tween-20). Cells were next incubated with 100µl of Fab fragment, peroxidase conjugated anti-mouse IgG antibody (secondary antibody) from Amersham diluted 1:4,000 in wash buffer for two hours at 37°C and then rinsed three times with wash buffer and three times with PBS. Cells were incubated with substrate solution (4mg o-phenylene diamine and 3.3µl 30% H2O2 in 10mL 0.1M citrate buffer, pH 5.0) for five minutes at R/T and in darkness (under aluminum foil). The reaction was stopped by the addition of 50µl 4N H2SO4. The absorbance of samples was read at 492nm in the plate reader. Out of the six replicates, four were treated with both antibodies, two were treated only with the secondary antibody (i.e., to determine the background binding of the enzyme conjugated antibody). Transglutaminase I levels were determined by subtracted background from the readings from each treatment and determining the mean ± s.d. for the replicates exposed to both antibodies.
The level of TGase I detected after treatment of the cells could be influenced by cell number, i.e., the greater the number of cells the greater the level of TGase-1 detected. The level of Tgase I was normalized to DNA content of the cells in the same well thus eliminating variation due to differences in cell number. […]

Human keratinocytes [3] = assay: 3H-Thymidine incorporation, keratinocyte proliferation; type: cell-based; conditions: 250 nM
Protocol: as §1
The incorporation of ^3H-thymidine by cultured keratinocytes was used as an assay of keratinocyte proliferation. Thymidine is one of four deoxynucleosides which are the monomeric units of DNA, the universal library of genetic information in the animal kingdom. Prior to cell division of a somatic cell such as a keratinocyte, the complete genome of the cell undergoing cell division is replicated. This involves large scale DNA synthesis by the cell and enables both daughter cells to receive identical copies of the genetic material. When ^3H-thymidine is included in the culture media of keratinocytes which are synthesizing DNA in preparation for cell division then the labelled nucleoside is incorporated into the newly synthesized DNA. The extent of incorporation of ^3H-thymidine into a population of cells is proportional to the rate of DNA synthesis by this population of cells and therefore an indication of their cellular proliferation.
Keratinocytes (that were cultured as described above) were plated in 24 well plates at a density of 20,000 cells per well in 1 ml media. After incubation for four days or until the cells were 60-70% confluent, the media was changed. Test compounds were added (in triplicate) to the wells 24 hours after the media change, and four hours later 1µCi ^3H-Thymidine in 50 µl media was added per well. Cells were incubated for a further 24 hours. Media was removed from the cells, 10% ice cold trichloroacetic acid (TCA) added and plates were incubated on ice for 30 minutes. Cells were washed five times with 5% TCA and allowed to dissolve in 500 µl 0.1M NaOH for at least one hour (usually overnight). The preparations were neutralized with 0.1M HCl; 50 µl of the cell preparation was used to determine total protein content. Disintegrations per minute (DPM) from ^3H labelling of DNA was determined by liquid scintillation counting of 900µl of the cell preparation. Thymidine incorporation results were expressed as DPM/µg protein.

[4] = test system: acyl CoA retinol transferase (ARAT); assay: In vitro Microsomal Assay, ARAT catalyzed retinol esterification (retinyl palmitate formation); type: biochemical, bovine
[5] = Table 2, 100 µM, read-out: % INHIB. LRAT
[6] = Table 10, 100 µM, read-out: % INHIBITION, LRAT
[7] = Table 5A, 100µM, read-out: % INHIBITION, LRAT

- inhibition at 100 µM [1, 5]: 0%
SMILES: CCCCCCCCC=CCCCCCCCC(=O)NCCC[N+](C)(C)CC(=O)[O-] [oleamidopropyl betaine]

- inhibition at 100 µM [1, 5]: 0%
SMILES: CCCCCCCCC=CCCCCCCCC[N+](C)(C)[O-] [oleamine oxide]

- inhibition at 100 µM [1, 7]: 77%
SMILES: CCC(=O)/C=C/C1C(C)=CCCC1(C)C (stereo not drawn) [alpha methyl ionone]

- inhibition at 100 µM [1, 7]: 49%
SMILES: CCOC(=O)C1=C(C)C=CCC1(C)C [ethyl saffranate]

- % INHIBITION, ARAT ([4]; Table 5A, 100µM): 80%
- inhibition at 100 µM [1, 7]: 92%
SMILES: C/C=C/C(=O)C1CCC(C)(C)C=C1C (centres unmarked) [isodamascone]

More lines, now with the values behind:

SMILES: CC1=C(/C=C/C(C)=C/C=C/C(C)=C/C(=O)O)C(C)(C)CCC1 [retinoic acid]
- TGase/ DNA (% control) (Human keratinocytes [2]; Table 11, 2.5x10^-7M): 42%
- mean TGase/ DNA x10^5 ± s.d (Human keratinocytes [2]; Table 11, 2.5x10^-7M): 22.47 ± 2.31
- TGase/ DNA (% control) (Human keratinocytes [2]; Table 12, 2.5x10^-7M): 32%
- mean TGase/ DNA x10^5 ± s.d (Human keratinocytes [2]; Table 12, 2.5x10^-7M): 16.31 ± 2.58
- TGase/ DNA (% control) (Human keratinocytes [2]; Table 13, 2.5x10^-7M): 52%
- % Control (Human keratinocytes [3]; Table 9A, Experiment #1): 156%
- DPM/Microgram Protein mean (Human keratinocytes [3]; Table 9A, Experiment #1): 3013 DPM/Microgram Protein
- % Control (Human keratinocytes [3]; Table 9B, Experiment #2): 163%
- DPM/Microgram Protein mean (Human keratinocytes [3]; Table 9B, Experiment #2): 1494 DPM/Microgram Protein

SMILES: O=C1C[C@@H](c2ccc(O)cc2)Oc2cc(O)cc(O)c21 [Naringenin, naringenin]
- TGase/ DNA (% control) (Human keratinocytes [2]; Table 11, 10^-7M): 94%
- mean TGase/ DNA x10^5 ± s.d (Human keratinocytes [2]; Table 11, 10^-7M): 49.84 ± 2.76
- TGase/ DNA (% control) (Human keratinocytes [2]; Table 12, 10^-8M): 89%
- mean TGase/ DNA x10^5 ± s.d (Human keratinocytes [2]; Table 12, 10^-8M): 45.01 ± 1.90
- % INHIBITION, ARAT ([4]; Table 10, 100 µM): 33%
- inhibition at 100 µM [1, 6]: 14%

SMILES: CC(=O)c1cc2c(cc1C)C(C)(C)C(C)C2C(C)C (centres unmarked) [traseolide]
- % INHIBITION, ARAT ([4]; Table 5A, 100µM): 41%

SMILES: C/C=C/C(=O)C1C(C)=CCCC1(C)C (stereo not drawn) [alpha damascone]
- % Control (Human keratinocytes [2]; Table 7, experiment 1): 92%
- % Control (Human keratinocytes [2]; Table 7, experiment 2): 86%
- % INHIBITION, ARAT ([4]; Table 5A, 100µM): 83%
- % INHIBITION, ARAT ([4]; Table 5B, 10µM): 67%

SMILES: CCCCCCCCCCCC(=O)N(C)CC(=O)O [lauroyl sarcosine]
- % INHIB. ARAT ([4]; Table 2, 100 µM): 20%
- inhibition at 100 µM [1, 5]: 0%

SMILES: O=c1c(O)c(-c2ccc(O)c(O)c2)oc2cc(O)cc(O)c12 [Quercetin, quercetin]
- % INHIBITION, ARAT ([4]; Table 10, 100 µM): 25%
- inhibition at 100 µM [1, 6]: 14%

SMILES: CCCCCCCCCCCC1=NCCN1CCO [Lauryl, lauryl hydroxyethyl imidazoline]
- inhibition at 10 µM ([1]; Table 3, 10 micromolar, read-out: % INHIB. LRAT): 0%
- inhibition at 100 µM ([1]; Table 3, 100 micromolar, read-out: % INHIB. LRAT): 47%

SMILES: CCCCCCCC/C=C\CCCCCCCC1=NCCN1CCO [oleyl hydroxyethyl imidazoline]
- activity at 1 µM (Human keratinocytes [2]; Homo sapiens, Keratinocyte, Table 4, Exp 1): 80.7%
- activity at 1 µM (Human keratinocytes [2]; Homo sapiens, Keratinocyte, Table 4, Exp 2): 78.2%
- activity at 1 µM (Human keratinocytes [2]; Homo sapiens, Keratinocyte, Table 4, Exp 3): 91.1%

SMILES: CCCCCCCCCCCCCCCC(=O)OC/C=C(C)/C=C/C=C(C)/C=C/C1=C(C)CCCC1(C)C [retinyl palmitate]
- activity at […] (Human keratinocytes [2]; Homo sapiens, Keratinocyte, Example 12, 2.5x10^-9M, read-out: keratinocyte TGase I level (% of control)): 93%
- TGase/ DNA (% control) (Human keratinocytes [2]; Table 12, 2.5x10^-8M): 93%
- mean TGase/ DNA x10^5 ± s.d (Human keratinocytes [2]; Table 12, 2.5x10^-8M): 47.32 ± 4.22
